Article PMC12561408, “AI‐Driven De Novo Design of Ultra Long‐Acting GLP‐1 Receptor Agonists” (Advanced Science, 2025)

How the values were obtained:
[1] = rat, in vivo; cited from earlier work
Excerpt: According to a study by Novo Nordisk,^[ [39] ^] […] While the fatty acid chai ...

[2] = in vivo; conditions: male, SD, rat, 0.05 mg/kg; for level at 72 h: Plasma Conc. at 72 h; for level at 96 h: Plasma Conc. at 96 h
Experimental: B) half‐life (T1/2). C) the maximum plasma concentration (Cmax). […] F) time to Maximum Concentration (Tmax). […] Data were analyzed with the two‐sided Student's unpaired t test. ^* p < 0.05, ^** p < 0.01, ^*** p < 0.001.
Plasma samples were analyzed using LC‐MS/MS (Waters XEVO TQ‐XS), and pharmacokinetic parameters such as T1/2, Cmax, Tmax, AUC0‐t, and MRT0‐t were calculated using WinNonlin. The sample preparation and detailed information of LC‐MS/MS are shown in Table S5 (Supporting Information).

- level at 2 h ([2]; Plasma Conc. at 2 h, animal 1): 241 ng/mL
- level at 2 h ([2]; Plasma Conc. at 2 h, animal 2): 262 ng/mL
- level at 2 h ([2]; Plasma Conc. at 2 h, animal 3): 272 ng/mL
- level at 4 h ([2]; Plasma Conc. at 4 h, animal 1): 308 ng/mL
- level at 4 h ([2]; Plasma Conc. at 4 h, animal 2): 275 ng/mL
- level at 4 h ([2]; Plasma Conc. at 4 h, animal 3): 339 ng/mL
- level at 8 h ([2]; Plasma Conc. at 8 h, animal 1): 321 ng/mL
- level at 8 h ([2]; Plasma Conc. at 8 h, animal 2): 327 ng/mL
- level at 8 h ([2]; Plasma Conc. at 8 h, animal 3): 341 ng/mL
- level at 12 h ([2]; Plasma Conc. at 12 h, animal 1): 283 ng/mL
- level at 12 h ([2]; Plasma Conc. at 12 h, animal 2): 278 ng/mL
- level at 24 h ([2]; Plasma Conc. at 24 h, animal 1): 133 ng/mL
- level at 24 h ([2]; Plasma Conc. at 24 h, animal 2): 135 ng/mL
- level at 48 h ([2]; Plasma Conc. at 48 h, animal 1): 12.9 ng/mL
- level at 48 h ([2]; Plasma Conc. at 48 h, animal 2): 13.4 ng/mL
- level at 72 h ([2]; animal 1): 1.5 ng/mL
- level at 72 h ([2]; animal 2): 1.8 ng/mL
- level at 96 h ([2]; animal 1): 1 ng/mL
- level at 96 h ([2]; animal 2): 0.3 ng/mL
- level at 2 h ([2]; Plasma concentration at 2 h (mean)): 258 ng/mL
- level at 4 h ([2]; Plasma concentration at 4 h (mean)): 307 ng/mL
- level at 8 h ([2]; Plasma concentration at 8 h (mean)): 330 ng/mL
- level at 12 h ([2]; Plasma concentration at 12 h (mean)): 280 ng/mL
- level at 24 h ([2]; Plasma concentration at 24 h (mean)): 132 ng/mL
- level at 48 h ([2]; Plasma concentration at 48 h (mean)): 13.9 ng/mL
Structure (SMILES): CC[C@H](C)[C@H](NC(=O)[C@H](Cc1ccccc1)NC(=O)[C@H](CCC(=O)O)NC(=O)[C@H](CCCCNC(=O)COCCOCCNC(=O)COCCOCCNC(=O)CC[C@H](NC(=O)CCCCCCCCCCCCCCCCC(=O)O)C(=O)O)NC(=O)[C@H](C)NC(=O)[C@H](C)NC(=O)[C@H](CCC(N)=O)NC(=O)CNC(=O)[C@H](CCC(=O)O)NC(=O)[C@H](CC(C)C)NC(=O)[C@H](Cc1ccc(O)cc1)NC(=O)[C@H](CO)NC(=O)[C@H](CO)NC(=O)[C@@H](NC(=O)[C@H](CC(=O)O)NC(=O)[C@H](CO)NC(=O)[C@@H](NC(=O)[C@H](Cc1ccccc1)NC(=O)[C@@H](NC(=O)CNC(=O)[C@H](CCC(=O)O)NC(=O)C(C)(C)NC(=O)[C@@H](N)Cc1cnc[nH]1)[C@@H](C)O)[C@@H](C)O)C(C)C)C(=O)N[C@@H](C)C(=O)N[C@@H](Cc1c[nH]c2ccccc12)C(=O)N[C@@H](CC(C)C)C(=O)N[C@H](C(=O)N[C@@H](CCCNC(=N)N)C(=O)NCC(=O)N[C@@H](CCCNC(=N)N)C(=O)NCC(=O)O)C(C)C [Semaglutide]
- half‐life in rats (literature) [1]: 7 to 8 h
